From patent US20100184813A1, “CHEMICAL COMPOUNDS 553” (AstraZeneca AB, priority 2008, published 2010)

Target: T1, human DGAT1 (Homo sapiens, UniProt O75907)
T1 construct: made in house; host or cells: Sf9 insect cells (baculovirus); membrane fraction
T1 sequence (O75907 1-488): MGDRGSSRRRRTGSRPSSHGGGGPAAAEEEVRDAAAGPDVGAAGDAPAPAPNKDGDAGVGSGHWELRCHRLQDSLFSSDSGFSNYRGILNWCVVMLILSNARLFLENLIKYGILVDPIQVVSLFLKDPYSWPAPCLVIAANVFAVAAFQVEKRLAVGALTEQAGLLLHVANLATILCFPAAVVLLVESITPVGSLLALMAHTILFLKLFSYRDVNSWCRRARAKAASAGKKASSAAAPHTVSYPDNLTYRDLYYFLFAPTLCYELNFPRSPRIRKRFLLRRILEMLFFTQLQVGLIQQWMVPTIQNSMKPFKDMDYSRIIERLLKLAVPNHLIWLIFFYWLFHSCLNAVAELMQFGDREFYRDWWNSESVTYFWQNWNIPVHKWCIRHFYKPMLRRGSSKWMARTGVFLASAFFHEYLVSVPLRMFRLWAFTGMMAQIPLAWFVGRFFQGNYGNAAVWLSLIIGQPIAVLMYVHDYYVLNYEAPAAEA
Assay: Human Enzyme Assay (DGAT1 inhibition, 14C oleoyl coenzyme A, insect cell membranes)
Type: biochemical
Conditions: human DGAT1 expressed in sf9 insect cell membranes; usually a mean of 2 measurements
Procedure: See, for example, International Application WO 2005/044250.
The in vitro assay to identify DGAT1 inhibitors uses human DGAT1 expressed in insect cell membranes as the enzyme source (Proc. Natl. Acad. Sci. 1998, 95, 13018-13023). Briefly, sf9 cells were infected with recombinant baculovirus containing human DGAT1 coding sequences and harvested after 48 h. Cells were lysed by sonication and membranes isolated by centrifuging at 28000 rpm for 1 h at 4° C. on a 41% sucrose gradient. The membrane fraction at the interphase was collected, washed, and stored in liquid nitrogen.
DGAT1 activity was assayed by a modification of the method described by Coleman (Methods in Enzymology 1992, 209, 98-102). Compound at 0.0000256 μM-33 μM (final conc.) (typically 10 μM) was incubated with 4 μg/ml (final conc) membrane protein, 5 mM MgCl2, and 100 μM 1,2 dioleoyl-sn-glycerol (dissolved in acetone with a final assay conc. of acetone of 10%) in a total assay volume of 200 μl in a 96 well plate. The reaction was started by adding ^14C oleoyl coenzyme A (30 μM final concentration) and incubated at room temperature for 30 minutes. The reaction was stopped by adding 200 μl 2-propanol:heptane 7:1. Radioactive triolein product was separated into the organic phase by adding 300 μl heptane and 100 μl 0.1 M carbonate buffer pH 9.5. DGAT1 activity was quantified by counting aliquots of the upper heptane layer by liquid scintillography.
Stated figures are usually a mean of a number of measurements (usually 2 measurements) according to standard practice.

| IC50 | SMILES |
| --- | --- |
| 12 nM | O=C(Nc1ccc([C@H]2CC[C@H](C(=O)O)CC2)cc1F)c1nnc(Nc2cccc(Cl)c2)o1 [Example 4, (1r,4r)-4-(4-(5-(3-Chlorophenylamino)-1,3,4-oxadiazole-2-carboxamido)-3-fluorophenyl)cyclohexanecarboxylic acid] |
| 5.5 nM | O=C(Nc1ccc([C@H]2CC[C@H](C(=O)O)CC2)cc1F)c1nnc(Nc2ccc(F)c(F)c2)o1 [Example 5, (1r,4r)-4-(4-(5-(3,4-Difluorophenylamino)-1,3,4-oxadiazole-2-carboxamido)-3-fluorophenyl)cyclohexanecarboxylic acid] |
| 4.7 nM | O=C(Nc1ccc([C@H]2CC[C@@H](C(=O)O)CC2)cc1F)c1nnc(Nc2cc(F)c(F)cc2F)o1 [Example 8, (1s,4s)-4-(3-Fluoro-4-(5-(2,4,5-trifluorophenylamino)-1,3,4-oxadiazole-2-carboxamido)phenyl)cyclohexanecarboxylic acid] |
| 9.2 nM | O=C(Nc1ccc([C@H]2CC[C@@H](C(=O)O)CC2)cc1F)c1nnc(Nc2ccc(F)c(F)c2)o1 [Example 7, (1s,4s)-4-(4-(5-(3,4-Difluorophenylamino)-1,3,4-oxadiazole-2-carboxamido)-3-fluorophenyl)cyclohexanecarboxylic acid] |
| 28 nM | O=C(Nc1ccc([C@H]2CC[C@H](C(=O)O)CC2)cc1F)c1nnc(Nc2ccc(OC(F)F)cc2)o1 [Example 2] |
| 16 nM | O=C(Nc1ccc([C@H]2CC[C@H](C(=O)O)CC2)cc1F)c1nnc(Nc2ccc(C(F)(F)F)cc2)o1 [Example 1, (1r,4r)-4-(3-Fluoro-4-(5-(4-(trifluoromethyl)phenylamino)-1,3,4-oxadiazole-2-carboxamido)phenyl)cyclohexanecarboxylic acid] |
| 11 nM | O=C(Nc1ccc([C@H]2CC[C@H](C(=O)O)CC2)cc1F)c1nnc(Nc2ccc(OC(F)(F)F)cc2)o1 [Example 3, (1r,4r)-4-(3-Fluoro-4-(5-(4-(trifluoromethoxyl)phenylamino)-1,3,4-oxadiazole-2-carboxamido)phenyl)cyclohexanecarboxylic acid] |
| 3.7 nM | O=C(Nc1ccc([C@H]2CC[C@H](C(=O)O)CC2)cc1F)c1nnc(Nc2cc(F)c(F)cc2F)o1 [Example 6, (1r,4r)-4-(3-Fluoro-4-(5-(2,4,5-trifluorophenylamino)-1,3,4-oxadiazole-2-carboxamido)phenyl)cyclohexanecarboxylic acid] |
